Experimental data as given in ChEMBL document CHEMBL1770133, “Design of potent and selective GPR119 agonists for type II diabetes” (Bioorg Med Chem Lett, 2011).
≈ marks a conversion by molar mass, not a printed value.

Legend:
[1] = target: T1, Glucose-dependent insulinotropic receptor (Homo sapiens, UniProt Q8TDV5); experiment: Agonist activity at human GPR119 expressed in CHO cells co-expressing Galpha15 assessed as increase of intracellular cAMP accumulation after 60 mins by HTRF assay; assay type: functional, cell-based
T1 sequence (Q8TDV5 whole entry): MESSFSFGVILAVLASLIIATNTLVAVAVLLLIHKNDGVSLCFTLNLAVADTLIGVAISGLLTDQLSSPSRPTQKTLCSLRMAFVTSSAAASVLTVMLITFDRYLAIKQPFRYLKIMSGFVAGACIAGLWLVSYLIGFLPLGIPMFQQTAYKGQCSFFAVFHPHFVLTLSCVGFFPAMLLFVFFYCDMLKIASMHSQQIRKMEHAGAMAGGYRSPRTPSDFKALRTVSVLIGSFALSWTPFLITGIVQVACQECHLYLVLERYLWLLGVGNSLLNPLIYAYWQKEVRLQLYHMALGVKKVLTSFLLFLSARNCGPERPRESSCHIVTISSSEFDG

[2] = target: T2, Voltage-gated inwardly rectifying potassium channel KCNH2 (Homo sapiens, UniProt Q12809); experiment: Inhibition of human ERG
T2 sequence (Q12809 whole entry): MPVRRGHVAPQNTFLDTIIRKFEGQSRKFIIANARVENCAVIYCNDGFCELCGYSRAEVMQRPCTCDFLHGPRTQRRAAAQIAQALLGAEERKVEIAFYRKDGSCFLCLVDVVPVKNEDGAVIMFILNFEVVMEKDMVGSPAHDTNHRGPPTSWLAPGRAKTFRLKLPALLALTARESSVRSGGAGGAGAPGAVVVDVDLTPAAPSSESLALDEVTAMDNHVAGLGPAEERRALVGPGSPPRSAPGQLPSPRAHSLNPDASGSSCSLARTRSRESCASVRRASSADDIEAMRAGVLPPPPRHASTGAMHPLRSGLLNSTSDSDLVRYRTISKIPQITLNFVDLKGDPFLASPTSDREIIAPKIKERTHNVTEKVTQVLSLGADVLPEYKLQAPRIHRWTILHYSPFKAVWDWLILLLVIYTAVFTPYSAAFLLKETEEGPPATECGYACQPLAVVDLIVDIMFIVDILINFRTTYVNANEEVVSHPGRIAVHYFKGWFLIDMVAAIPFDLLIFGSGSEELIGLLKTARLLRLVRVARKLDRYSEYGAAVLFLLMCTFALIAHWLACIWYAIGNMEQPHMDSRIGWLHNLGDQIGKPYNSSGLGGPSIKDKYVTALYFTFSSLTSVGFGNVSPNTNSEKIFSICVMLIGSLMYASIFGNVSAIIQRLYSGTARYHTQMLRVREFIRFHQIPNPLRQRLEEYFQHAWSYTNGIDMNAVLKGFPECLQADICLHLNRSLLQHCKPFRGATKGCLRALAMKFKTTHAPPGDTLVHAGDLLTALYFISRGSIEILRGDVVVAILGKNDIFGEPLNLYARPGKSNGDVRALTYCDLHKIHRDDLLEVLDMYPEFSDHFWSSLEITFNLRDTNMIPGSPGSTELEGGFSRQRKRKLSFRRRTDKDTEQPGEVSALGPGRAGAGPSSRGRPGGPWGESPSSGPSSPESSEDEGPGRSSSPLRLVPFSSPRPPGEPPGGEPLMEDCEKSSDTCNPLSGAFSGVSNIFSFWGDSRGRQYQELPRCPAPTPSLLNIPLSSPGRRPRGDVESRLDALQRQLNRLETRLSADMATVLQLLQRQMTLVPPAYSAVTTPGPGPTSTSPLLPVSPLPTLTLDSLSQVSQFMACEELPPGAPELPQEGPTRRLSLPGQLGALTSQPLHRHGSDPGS

[3] = target: T3, Glucose-dependent insulinotropic receptor (Mus musculus, UniProt Q7TQP3); experiment: Agonist activity at mouse GPR119 expressed in CHO cells co-expressing Galpha15 assessed as increase of intracellular cAMP accumulation after 60 mins by HTRF assay; assay type: functional, cell-based
T3 sequence (Q7TQP3 whole entry): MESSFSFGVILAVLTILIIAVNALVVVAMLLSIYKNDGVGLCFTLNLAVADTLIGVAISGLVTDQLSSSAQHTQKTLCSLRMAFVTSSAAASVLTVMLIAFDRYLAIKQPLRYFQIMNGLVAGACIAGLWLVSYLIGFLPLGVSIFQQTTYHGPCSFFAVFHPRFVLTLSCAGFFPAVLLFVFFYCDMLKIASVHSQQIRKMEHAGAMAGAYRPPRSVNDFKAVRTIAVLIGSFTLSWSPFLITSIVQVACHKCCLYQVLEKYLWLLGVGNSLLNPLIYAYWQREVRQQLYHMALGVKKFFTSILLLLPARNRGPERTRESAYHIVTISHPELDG

Mus musculus [4] = experiment: Antidiabetic activity in high fat fed C57BL/6 mouse assessed as change in AUC of blood glucose level at 1 mg/kg, po qd administered 1 hr before glucose challenge measured up to 120 mins by oral glucose tolerance test relative to control; assay type: functional, C57BL6
Mus musculus [5] = experiment: Antidiabetic activity in high fat fed C57BL/6 mouse assessed as change in AUC of blood glucose level at 3 mg/kg, po qd administered 1 hr before glucose challenge measured up to 120 mins by oral glucose tolerance test relative to control; assay type: functional, C57BL6
Mus musculus [6] = experiment: Antidiabetic activity in high fat fed C57BL/6 mouse assessed as change in AUC of blood glucose level at 30 mg/kg, po qd administered 1 hr before glucose challenge measured up to 120 mins by oral glucose tolerance test relative to control; assay type: functional, C57BL6
Mus musculus [7] = experiment: Antidiabetic activity in high fat fed C57BL/6 mouse assessed as change in AUC of blood glucose level at 10 mg/kg, po qd administered 1 hr before glucose challenge measured up to 120 mins by oral glucose tolerance test relative to control; assay type: functional, C57BL6
[8] = Volume of distribution at steady state in mouse at 1 mg/kg, iv and 10 mg/kg, po; assay type: ADME, organism-based; details: in vivo, read-out: Vdss
[9] = Clearance in mouse at 1 mg/kg, iv and 10 mg/kg, po; assay type: ADME, organism-based; details: in vivo
[10] = Half life in mouse at 1 mg/kg, iv and 10 mg/kg, po; assay type: ADME, organism-based; details: in vivo
Mus musculus [11] = experiment: Dose normalized AUC in mouse at 1 mg/kg, iv and 10 mg/kg, po; assay type: ADME, organism-based; details: in vivo
Mus musculus [12] = experiment: Antidiabetic activity in high fat fed po dosed C57BL/6 mouse assessed as change in AUC of blood glucose level administered 1 hr before glucose challenge measured up to 120 mins by oral glucose tolerance test; assay type: functional; details: C57BL6, Blood, read-out: MED
Canis familiaris = species on record: Canis familiaris; experiment: Cardiotoxicity in dog assessed as QTc prolongation; assay type: toxicity, organism-based, Canis lupus familiaris; details: in vivo
[13] = Solubility of compound in PEG400 after 3 to 7 days; assay type: physicochemical
[14] = target: T4, Glucose-dependent insulinotropic receptor (Mus musculus) (UniProt Q7TQP3); experiment: Agonist activity at mouse GPR119 expressed in CHO cells co-expressing Galpha15 assessed as increase of intracellular cAMP accumulation at 10 uM after 60 mins by HTRF assay; assay type: functional, cell-based
T4 sequence (whole entry): T3 sequence (Q7TQP3 whole entry)

[15] = target: T2, Voltage-gated inwardly rectifying potassium channel KCNH2; experiment: Inhibition of human ERG by patch clamp technique
[16] = target: T5, Glucose-dependent insulinotropic receptor (Homo sapiens) (UniProt Q8TDV5); experiment: Agonist activity at human GPR119 expressed in CHO cells co-expressing Galpha15 assessed as increase of intracellular cAMP accumulation at 10 uM after 60 mins by HTRF assay; assay type: functional, cell-based
T5 sequence (whole entry): T1 sequence (Q8TDV5 whole entry)

Compound	EC50 [1] [nM]	EC50 [3] [nM]	other results
O=C(NC1CC1)c1ccc(OCC2CC2CC2CCN(c3ncc(Cl)cn3)CC2)cc1F (racemic; 57)	9	18	IC50 [2]: > 30000 nM
CS(=O)(=O)c1ccc(N2CCC(C3CCN(c4ccccn4)CC3)CC2)cc1	39	682	
Cc1nc(C#N)cc(N2CCC(C3CCN(C(=O)OC(C)(C)C)CC3)CC2)n1	2	2	
Cc1ccc(N2CCC(C3CCN(c4ccc(S(C)(=O)=O)cc4)CC3)CC2)nc1	18	73	
Cc1cnc(N2CCC(C3CCN(c4cc(C)nc(C#N)n4)CC3)CC2)cn1	19	64	Activity (Mus musculus [4]): 7%; Activity (Mus musculus [5]): 26%; Activity (Mus musculus [6]): 35%; Activity (Mus musculus [7]): 30%
CC(C)(C)OC(=O)N1CCC(C2CCN(c3ccc(S(C)(=O)=O)cc3)CC2)CC1	22	36	Vd [8]: 6.9 L/kg; clearance [9]: 120 mL/min/kg; half-life [10]: 36 min; AUC (Mus musculus [11]): 0.09 µM·kg·h/mg
CS(=O)(=O)c1ccc(N2CCC(C3CCN(c4ccc(C(F)(F)F)cn4)CC3)CC2)cc1	13	8	
C[S+]([O-])c1ccc(N2CCC(C3CCN(C(=O)OC(C)(C)C)CC3)CC2)cc1 (stereo not drawn)	11	132	
O=C(NC1CC1)c1ccc(OCCC2CC2C2CCN(c3ncc(Cl)cn3)CC2)cc1F (racemic)	0.3	0.4	IC50 [2]: > 30000 nM
CC(C)(C)OC(=O)N1CCC(C2CCN(c3cnccn3)CC2)CC1	103	142	
O=C(NC1CC1)c1ccc(OCC2CC2C2CCN(c3ncc(Cl)cn3)CC2)cc1F (racemic; 52)	20	23	
CC(C)(C)OC(=O)N1CCC(C2CCN(c3ccnc(C#N)n3)CC2)CC1	6	11	
O=C(NC1CC1)c1ccc(OCCC2CC2C2CCN(c3ncc(Cl)cn3)CC2)cc1F (single isomer, unassigned; (+))	14	5	IC50 [2]: > 30000 nM
Cc1cnc(N2CCC([C@H]3C[C@H]3CCOc3nc(C)cc(C#N)n3)CC2)nc1	2	2	minimal effective dose (Mus musculus [12]): 0.01 mg/kg; Activity (Canis familiaris): Toxic; solubility [13]: 24.8 mg/mL (≈ 65.5 mM)
CS(=O)(=O)c1ccc(N2CCC(C3CCN(c4ccc(F)cn4)CC3)CC2)cc1	19	206	
CC(C)(C)OC(=O)N1CCC(C2CCN(c3ccncn3)CC2)CC1	116	379	
CC(C)(C)OC(=O)N1CCC(C2CCN(c3cccc(S(C)(=O)=O)c3)CC2)CC1	1900		Activity [14]: < 10%
Cc1cnc(N2CCC(C3CCN(c4ccc(S(C)(=O)=O)cc4)CC3)CC2)nc1	57	45	
Clc1cnc(N2CCC([C@H]3C[C@H]3CCOc3ccc(-n4ccnn4)cn3)CC2)nc1	2	4	minimal effective dose (Mus musculus [12]): 1 mg/kg; solubility [13]: 11.4 mg/mL (≈ 26.8 mM); IC50 [15]: 44000 nM
Cc1ccnc(N2CCC(C3CCN(c4ccc(S(C)(=O)=O)cc4)CC3)CC2)n1			Activity [16]: < 10%; Activity [14]: < 10%
O=C(NC1CC1)c1ccc(OCC2CC2C2CCN(c3ncc(Cl)cn3)CC2)cc1F (racemic; 51)	38	9	
CC(C)(C)OC(=O)N1CCC(C2CCN(c3cccnc3)CC2)CC1	3600		Activity [14]: < 10%
Cc1ccc(N2CCC(C3CCN(C(=O)OC(C)(C)C)CC3)CC2)cc1	338	1900	
